Measurements as given in US20220089540A1 (Board of Trustees of Michigan State University, priority 2019, published 2022).
Read-outs that look alike come from different tables or passages of the source.

Experiments:
LogD at pH 7.4 = format: physicochemical; settings: pH 7.4 buffer
Protocol: Note that for Table 6, Log D is the distribution constant, which is descriptor of the lipophilicity of a molecule. This was determined using an aqueous phase that was adjusted to pH 7.4 using a buffer.

[1] = system: mammary gland tumors of MMTV-Neu mice; experiment: MMTV-Neu mouse model of HER2 positive breast cancer, rexinoid in diet; settings: 100 mg/kg diet; LG268 5 days, CW-V-125 10 days; western blot and/or immunohistochemistry
Protocol: Tumors or mammary glands were homogenized in EBC buffer (1M Tris pH 8, 5M NaCl) with the same protease inhibitors and 10% NP-40 and incubated on ice for 30 min. Protein concentrations were determined by the BCA assay (Sigma-Aldrich). Proteins were resolved by SDS-PAGE, transferred to a nitrocellulose membrane and analyzed with the following antibodies: vinculin, p-STAT1, p-STAT3, p-STAT5 and mouse and rabbit secondary antibodies (Cell Signaling); PD-1, CD206 (Abcam); PD-L1 (R&D). ImageJ was used to quantify the immunoblots, and results were plotted and statistically analyzed using Prism 6. All images shown are representative of 3 independent experiments.
One third of the tumor, mammary gland and spleen removed from MMTV-neu or MMTV-PyMT mice were minced separately and incubated in digestion media consisting of collagenase (300 U/ml, Sigma), dispase (1 U/ml, Worthington), and DNAse (2 U/ml, Calbiochem) for 30 minutes at 37° C. with stirring. Cells were then passed through a 40 μm cell strainer (BD Falcon), and red blood cells eliminated with lysis solution. […] Propidium iodide staining was used to exclude dead cells.
One third of the tumor, spleen and one mammary was removed from MMTV-neu and PyMT mice and fixed in 10% phosphate-buffered formalin for 48 hours, embedded in paraffin blocks, and sectioned (5-6 μm). Hydrogen peroxide was used to quench endogenous peroxidase activity. Sections were immunostained with antibodies raised against CD206 (1:200, Abcam), Gr1 (1:40, BM8, R&D), CD8 (1:40, Biolegend), FOXP3 (1:50, EBiosciences), PD-1 (1:100, Abcam), PD-L1 (1:50, Abcam), cleaved caspase 3 (Cell Signaling) and visualized with biotinylated anti-rabbit or anti-rat secondary antibodies (Cell Signaling or Vector Labs). Signal was detected using a DAB substrate (Cell Signaling) following the manufacturer's recommendations. Sections were counterstained with hematoxylin (Vector Labs).
Both rexinoid treatments were 100 mg/kg of diet, which is equivalent to 25 mg/kg of body weight (FIG. 1B).

PD-L1 = PD-L1 induction in macrophages or RAW264.7 cells with cancer cell conditioned media (flow cytometry); format: cell-based, mouse; settings: for PD-L1 Levels: Table 4, Control 43.3; for PD-L1: Table 2, Control 39.8, higher numbers indicate better upregulation
Protocol: RAW 264.7 mouse macrophage-like (ATCC) and E18-14C-27 (Wu et al., Cancer Res. 62, 6376-6380 (2002)) cells were cultured in DMEM supplemented with 10% fetal bovine serum (FBS). RAW 264.7 cells were cultured at 50000/well in a 6 well plate for 24 hours to determine PD-L1 levels. E18-14C-27 cells were cultured for 72 hours in the presence of LG268 for protein levels. Conditioned media was collected from E18-14C-27 at 60-70% confluence for 24 hours; media was then collected and centrifuged at 900 rpm for 5 minutes to eliminate any cell debris.
For PD-L1 staining, RAW 264.7 cells were plated at 25000 cells/ml in 6 well plates for 24 hours before adding conditioned media from E18-14C-27 and LG268. RAW 264.7 cells were cultured for additional 24 hours with E18-14C-27 conditioned media and LG268. […] THP-1 cells were stained and analyzed for the levels of PD-L1 following the same protocol.
Inhibitory receptors on lymphocytes such as PD-1 (programmed cell death protein 1) are important immune checkpoints that protect against autoimmunity as the interaction between PD-L1 (ligand) and the PD-1 receptor expressed on immune cells suppresses T cell activity. Immuno-oncology is revolutionizing cancer treatment, and enormous research efforts are ongoing to identify drugs that upregulate PD-L1 so that they can be combined with checkpoint inhibitors to boost efficacy. Macrophages or RAW264.7 cells are treated with conditioned media from cancer cells and rexinoids, and PD-L1 expression determined by flow cytometry. Higher numbers indicate better upregulation of PD-LI.
Using methods described herein, macrophages or RAW264.7 cells were treated with selected rexinoids and with conditioned media from cancer cells. Structures of the rexinoids are shown below.
PD-L1 expression was determined by flow cytometry.

[2] = system: inducible nitric oxide synthase (iNOS); experiment: iNOS suppression / NO assay in LPS-stimulated macrophages or RAW264.7 cells (Griess reaction); format: cell-based, mouse; settings: for activity at 0.125 µM / activity at 0.5 µM / activity at 0.3 µM: Mus musculus; for activity at 0.3 µM: RAW264.7, 24 h
Protocol: Macrophages or RAW264.7 like-cells were treated with various concentrations of rexinoids and stimulated with lipopolysaccaride (LPS) to activate inducible nitric oxide synthase (iNOS) to produce nitric oxide. This in vitro iNOS assay was rapid, reproducible, quantitative and predictive. Nitric oxide is implicated in the apoptosis of cancer cells via regulation of RXRs. There is a tight correlation between the % reduction of iNOS and efficacy in preclinical lung cancer models. Lower numbers indicate higher efficacy.
RAW264.7 cells were incubated with 300 nM rexinoids and stimulated with 1-2 ng/ml lipopolysaccaride (LPS) for 24 hours to activate inducible nitric oxide synthase (iNOS) to produce nitric oxide. Nitric oxide released into the media was measured by the Griess reaction.
Also, for Table 6, the iNOS suppression is the percent of the LPS-stimulated control where the compounds were measured at 100 nM or 300 nM.
Macrophages or RAW264.7 cells were treated with various concentrations of rexinoids listed in Table 7 and stimulated with lipopolysaccaride (LPS) to activate inducible nitric oxide synthase (iNOS) to produce nitric oxide. Nitric oxide (NO) is implicated in the apoptosis of cancer cells via regulation of RXRs. There is a tight correlation between the % reduction of iNOS and efficacy in preclinical lung cancer models. The in vitro iNOS assay is rapid, reproducible, quantitative and predictive, as NO production is measured in culture medium using the Griess reaction. Values are either presented as % inhibition or IC50 values.

SREBP = SREBP induction in human liver (HepG2) cells, RT-PCR; format: cell-based; parameters: key to SREBP: fold induction vs DMSO control; settings: for SREBP: 300 nM, Control 1.00, lower numbers indicate better safety, Table 2
Protocol: The SREBP transcription factor is involved in triglyceride synthesis, and its activation correlates with increased triglycerides in vivo. […] Lower numbers indicate better safety. […] Lower numbers indicate better safety. Also, for Table 6, SREBP activation was measured as fold induction compared to DMSO, where a lower value indicates the compound is an improvement over a control.

human RXRa = molecular target: T1, human RXRa (Homo sapiens, UniProt P19793); experiment: RXR activation luciferase reporter assay; format: cell-based; settings: luciferase, Control 0, higher numbers indicate higher potency
T1 sequence (P19793 1-462): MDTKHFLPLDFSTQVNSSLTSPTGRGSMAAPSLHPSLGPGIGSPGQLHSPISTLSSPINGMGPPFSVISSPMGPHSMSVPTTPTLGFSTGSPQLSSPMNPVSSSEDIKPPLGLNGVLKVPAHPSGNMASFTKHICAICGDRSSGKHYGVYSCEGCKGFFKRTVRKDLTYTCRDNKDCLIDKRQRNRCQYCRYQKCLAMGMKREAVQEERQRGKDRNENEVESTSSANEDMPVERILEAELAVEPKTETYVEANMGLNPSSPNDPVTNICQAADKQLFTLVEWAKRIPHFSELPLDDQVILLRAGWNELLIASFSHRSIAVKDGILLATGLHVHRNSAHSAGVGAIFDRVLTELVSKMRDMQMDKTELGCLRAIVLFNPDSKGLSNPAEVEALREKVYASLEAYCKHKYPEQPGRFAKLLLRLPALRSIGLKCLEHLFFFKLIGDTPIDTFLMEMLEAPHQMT
From the text: Rexinoids are agonists for the retinoid X receptors (RXRs). In this assay, the human RXRa promoter is functionally linked to a luciferase reporter gene. Changes in luciferase expression served as a sensitive surrogate measure of RXR activity. Higher numbers indicate higher potency.

[3] = RAW264.7, 125 nM, Control 100, lower numbers indicate higher efficacy, read-out: NO Assay
[4] = RAW264.7, 500 nM, Control 100, lower numbers indicate higher efficacy, read-out: NO Assay

SMILES | activity at 0.125 µM ([2]; RAW264.7, read-out: NO Assay) [%] | activity at 0.5 µM ([2]; RAW264.7, read-out: NO Assay) [%] | SREBP (SREBP) | RXR assay (human RXRa; 100 nM) | RXR assay (human RXRa; 2500 nM) | PD-L1 (PD-L1; 100 nM) | further results
CC(C)(C)c1cc(C(C)(C)C)cc(C2(c3ccc(C(=O)O)cn3)CC2)c1 |  |  |  |  |  |  | logD (LogD at pH 7.4): 2.8
CCN(c1ccc(C(=O)O)cn1)c1cc2c(cc1C)C(C)(C)CCC2(C)C [CW-V-125] |  |  |  |  |  |  | PD-L1 expression in tumors vs control [1]: increases; PD-L1 Levels (PD-L1; 100 nM): 72.5; PD-L1 Levels (PD-L1; 1000 nM): 69.9
CCN(c1ccc(C(=O)O)cc1)c1cc(C(C)(C)C)cc(C(C)(C)C)c1 [Compound 8, 4-[(3,5-di-tert-butylphenyl)(ethyl)amino]benzoic Acid] | > 80 | 31.5 | 1.95 | 1009 | 23514 | 31.2 | 
C=C(c1ccc(C(=O)O)cc1)c1cc(C(C)(C)C)cc(C(C)(C)C)c1 [Compound 3, 4-[1-(3,5-di-tert-butylphenyl)ethenyl]benzoic Acid] | 42.5 | 19.8 | 1.14 | 523 | 8163 | 26.5 | activity at 0.3 µM ([2]; read-out: iNOS (300 nM)): ~65%
CC(C)(C)c1cc(N(CC2CC2)c2ccc(C(=O)O)cn2)cc(C(C)(C)C)c1 [Compound 14, 6-[(cyclopropylmethyl)(3,5-di-tert-butylphenyl)amino]pyridine-3-carboxylic Acid] | 78.2 | 25.9 | 2.37 |  |  | 46.2 | 
CC(C)(C)c1cc(-n2c(C(F)(F)F)nc3cc(C(=O)O)ccc32)cc(C(C)(C)C)c1 [Compound 7, 1-(3,5-di-tert-butylphenyl)-2-(trifluoromethyl)-1H-1,3-benzodiazole-5-carboxylic Acid] | 38.7 | 23.6 | 1.57 |  |  | 44.2 | activity at 0.3 µM ([2]; read-out: iNOS (300 nM)): 55%
CCCN(c1cc(C(C)(C)C)cc(C(C)(C)C)c1)c1ccc(C(=O)O)cn1 [Compound 13, 6-[(3,5-di-tert-butylphenyl)(propyl)amino]pyridine-3-carboxylic Acid] |  |  | 2.44 | 16063 | 26703 | 67.9 | activity at 0.125 µM [2, 3]: 94.5%; activity at 0.5 µM [2, 4]: 32%
CCN(c1cc(C(F)(F)F)cc(C(F)(F)F)c1)c1ccc(C(=O)O)cn1 [Compound 15, 6-{[3,5-bis(trifluoromethyl)phenyl](ethyl)amino}pyridine-3-carboxylic Acid] | 87 | 27.9 | 1.11 |  |  | 34.8 | 
Cc1cc(OCC(C)C)c(C(C)C)cc1C1(c2ccc(C(=O)O)cn2)CC1 |  |  |  |  |  |  | logD (LogD at pH 7.4): 2.6
CCN(c1ccc(C(=O)O)cn1)c1cc(C(C)(C)C)ccc1C [Compound 12, 6-[(5-tert-butyl-2-methylphenyl)(ethyl)amino]pyridine-3-carboxylic Acid] | 44.2 | 16.7 | 1.69 |  |  | 45.8 | 
CCN(c1cc(C(C)(C)C)cc(C(C)(C)C)c1)c1ncc(C(=O)O)cn1 [Compound 10, 2-[(3,5-di-tert-butylphenyl)(ethyl)amino]pyrimidine-5-carboxylic Acid] | 48.6 | 19 | 1.44 | 1007 | 17963 | 32 | 
C/C(=C/C=C/C(C)=C/C(=O)O)c1cc(C(C)(C)C)cc(C(C)(C)C)c1OCC(F)F [LG101506, reference compound] |  |  | 1.12 | 1077 | 558 | 67.2 | NO Assay ([2]; 125 nM, Control 100, lower numbers indicate higher efficacy): 56.3; NO Assay ([2]; 500 nM, Control 100, lower numbers indicate higher efficacy): 16.3
CCN(c1cc(C(C)(C)C)cc(C(C)(C)C)c1)c1ccc(C(=O)O)cn1 [Compound 9, 6-[(3,5-di-tert-butylphenyl)(ethyl)amino]pyridine-3-carboxylic Acid] | 76.3 | 26.8 | 2.70 |  |  | 39.7 | activity at 0.3 µM ([2]; read-out: iNOS (300 nM)): ~25%
CCN(c1ccc2c(c1)C(C)(C)CCC2(C)C)c1ncc(C(=O)O)cn1 [CW-V-127] |  |  |  |  |  |  | PD-L1 Levels (PD-L1; 100 nM): 65.1; PD-L1 Levels (PD-L1; 1000 nM): 64.5
CC(/C=C/[C@@H]1C[C@]1(C)c1ccc2c(c1)C(C)(C)CCC2(C)C)=C\C(=O)O [VTP194204] |  |  |  |  |  |  | PD-L1 Levels (PD-L1; 100 nM): 63.8; PD-L1 Levels (PD-L1; 1000 nM): 70.9
CCOc1c(N(CC)c2ccc(C(=O)O)cc2)cc(C(C)(C)C)cc1C(C)(C)C [drawing 107] |  |  |  |  |  |  | activity at 0.3 µM ([2]; at 300 nM, percent of the LPS-stimulated control, lower is better, Table 6, read-out: iNOS suppression): 60%; SREBP activation (SREBP; fold induction compared to DMSO, several values per cell, Table 6): 2.4 fold induction
CCCCN(c1cc(C(C)(C)C)cc(C(C)(C)C)c1)c1ccc(C(=O)O)cn1 [Compound 19] |  |  | 4.77 | 13422 | 24350 | 50.2 | activity at 0.125 µM [2, 3]: 45.6%; activity at 0.5 µM [2, 4]: 9.4%
